Laboratory results as given in US20250368606A1, “CRYSTALLINE FORMS AND SALT FORMS OF A KINASE INHIBITOR” (Exelixis, Inc., priority 2021, published 2025).

Tests used:
Assay type in all cases: physicochemical
[1] = Desolvation / drying attempts at elevated temperature, solids analysed by XRPD
Procedure: Vacuum Oven Desolvation: Salts of Compound 1 that were determined to be solvates by various analytical methods underwent an attempted desolvation. […] Samples were analyzed by XRPD and/or TGA for determination of desolvation success.

[2] = Physical stability (form conversion) of solid forms
[3] = Visual (aqueous) solubility estimation; details: water, thermodynamic from solid, visual observation
Procedure: Solubility Estimation: Aliquots of various solvents were added to measured amounts of Compound 1 with agitation (typically sonication) at stated temperatures until complete dissolution was achieved, as judged by visual observation.
Aqueous Solubility Estimation: Aliquots of water were added to measured amounts of various Compound 1 salts with sonication.

[4] = dried under vacuum at 80° C. for 1 day

CNC(=O)c1cc2c(Oc3ccc(NC(=O)C4(C(=O)Nc5ccc(F)cc5)CC4)cc3)ccnc2cc1OC [Hemifumarate Form E]
form of post-drying solids (XRPD) ([1]; dried under vacuum at 72° C. for 1 day): unique disordered crystalline pattern

CNC(=O)c1cc2c(Oc3ccc(NC(=O)C4(C(=O)Nc5ccc(F)cc5)CC4)cc3)ccnc2cc1OC [Hemifumarate Form F]
form of post-drying solids (XRPD) ([1]; post-drying sample further dried under vacuum at 88° C. for 1 day): maintained the same form

CNC(=O)c1cc2c(Oc3ccc(NC(=O)C4(C(=O)Nc5ccc(F)cc5)CC4)cc3)ccnc2cc1OC [Form R]
XRPD Results after desolvation attempt ([1]; 105-120° C. vacuum, 2 hours): Form K | XRPD Results after desolvation attempt ([1]; 110° C., 1 hour): Form K + X

CNC(=O)c1cc2c(Oc3ccc(NC(=O)C4(C(=O)Nc5ccc(F)cc5)CC4)cc3)ccnc2cc1OC [Amorphous Compound 1, N-(4-fluorophenyl)-N-(4-((7-methoxy-6-(methylcarbamoyl)quinolin-4-yl)oxy)phenyl)cyclopropane-1,1-dicarboxamide]
physical stability: resulting form on exposure to elevated temperature ([2]; elevated temperature): Material K | physical stability: resulting form on contact with diethyl ether ([2]; immediately on contact with diethyl ether): crystallized to a mixture of Forms X and K | solubility [3]: < 250 µg/mL

CNC(=O)c1cc2c(Oc3ccc(NC(=O)C4(C(=O)Nc5ccc(F)cc5)CC4)cc3)ccnc2cc1OC [Napsylate Form A]
physical stability under drying conditions (XRPD) ([1]; 48° C. under vacuum for approximately 3 days): XRPD peaks attributed to Napsylate Form B increased in intensity | physical stability under drying conditions (XRPD) ([1]; 120° C. for 30 minutes): A mixture of Napsylate Form B and Form C

CNC(=O)c1cc2c(Oc3ccc(NC(=O)C4(C(=O)Nc5ccc(F)cc5)CC4)cc3)ccnc2cc1OC [Compound 1 Hemifumarate Form C]
form of post-drying solids (XRPD) [1, 4]: a mixture of Hemifumarate Form B, with trace Compound 1 free base Form A, and a few additional peaks

CNC(=O)c1cc2c(Oc3ccc(NC(=O)C4(C(=O)Nc5ccc(F)cc5)CC4)cc3)ccnc2cc1OC [Compound 1 Hemifumarate Form D]
form of post-drying solids (XRPD) [1, 4]: a mixture of Compound 1 free base Form A and Compound 1 Hemifumarate Form B

CNC(=O)c1cc2c(Oc3ccc(NC(=O)C4(C(=O)Nc5ccc(F)cc5)CC4)cc3)ccnc2cc1OC [Compound 1 Form S]
physical stability of the solvate ([2]; likely NMP solvate, only obtained as a mixture with Form A): readily converts to Form A

CNC(=O)c1cc2c(Oc3ccc(NC(=O)C4(C(=O)Nc5ccc(F)cc5)CC4)cc3)ccnc2cc1OC [Form U]
XRPD Results after desolvation attempt ([1]; 60° C.-72° C. vacuum 6 days): Form T + Form U | XRPD Results after desolvation attempt ([1]; 70° C. vacuum 3 days): Form U + Form T | XRPD Results after desolvation attempt ([1]; 105-120° C. vacuum, 2 hours): Form T (blue grey) | XRPD Results after desolvation attempt ([1]; 170° C. 15 minutes): Form T + Form A (grey brown)
